In PubChem BioAssay AID270 (DTP/NCI, 2004):
Several values for one entry are separate records, joined by “and”; a condition that tells them apart may be missing. Equal entries are not always repeated. Inconclusive results are not listed.

Tested on: BDF1 mice, s.c. Lewis lung carcinoma, T/C %
Test: NCI In Vivo Anticancer Drug Screen. Data for tumor model Lewis Lung Carcinoma (subcutaneous) in B6D2F1 (BDF1) mice
Procedure, shortened: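 First, mice carry a transplantable tumor. Next, groups receive either compound or vehicle. Finally, survival or tumor dimensions in the dosed animals are divided by the corresponding control figure.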

CCCCCCCCCCCC[N+](C)(C)Cc1ccccc1
T/C (endpoint: median survival time, dose: 0.12 mg/kg/injection, schedule: Q01DX009 (ip), vehicle: saline, higher = longer survival): 111 % of control | T/C (endpoint: median survival time, dose: 0.25 mg/kg/injection, schedule: Q01DX009 (ip), vehicle: saline, higher = longer survival): 94 % of control | T/C (endpoint: median survival time, dose: 1.0 mg/kg/injection, schedule: Q01DX009 (ip), vehicle: saline, higher = longer survival): 97 % of control | T/C (endpoint: median survival time, dose: 2.0 mg/kg/injection, schedule: Q01DX009 (ip), vehicle: saline, higher = longer survival): 97 % of control | T/C (endpoint: median survival time, dose: 4.0 mg/kg/injection, schedule: Q01DX009 (ip), vehicle: saline, higher = longer survival): 91 % of control | T/C (endpoint: median survival time, dose: 125.0 micrograms/kg/injection, schedule: Q01DX009 (ip), vehicle: saline, higher = longer survival): 107 % of control | T/C (endpoint: median survival time, dose: 250.0 micrograms/kg/injection, schedule: Q01DX009 (ip), vehicle: saline, higher = longer survival): 93 % of control | T/C (endpoint: median survival time, dose: 1000.0 micrograms/kg/injection, schedule: Q01DX009 (ip), vehicle: saline, higher = longer survival): 103 % of control | T/C (endpoint: median survival time, dose: 2000.0 micrograms/kg/injection, schedule: Q01DX009 (ip), vehicle: saline, higher = longer survival): 109 % of control | T/C (endpoint: median survival time, dose: 4000.0 micrograms/kg/injection, schedule: Q01DX009 (ip), vehicle: saline, higher = longer survival): 107 % of control | T/C (endpoint: median survival time, dose: 8000.0 micrograms/kg/injection, schedule: Q01DX009 (ip), vehicle: saline, higher = longer survival): 96 % of control

NC(=S)N/N=C\c1nccc2c(N)cccc12
T/C (endpoint: median survival time, dose: 6.25 mg/kg/injection, schedule: Q01DX009 (ip), vehicle: saline with Tween-80, higher = longer survival): 107 % of control and 110 % of control | T/C (endpoint: median survival time, dose: 12.5 mg/kg/injection, schedule: Q01DX009 (ip), vehicle: saline with Tween-80, higher = longer survival): 94 % of control and 113 % of control | T/C (endpoint: median survival time, dose: 25.0 mg/kg/injection, schedule: Q01DX009 (ip), vehicle: saline with Tween-80, higher = longer survival): 112 % of control and 117 % of control | T/C (endpoint: median survival time, dose: 50.0 mg/kg/injection, schedule: Q01DX009 (ip), vehicle: saline with Tween-80, higher = longer survival): 105 % of control | T/C (endpoint: median survival time, dose: 75.0 mg/kg/injection, schedule: Q01DX009 (ip), vehicle: saline with Tween-80, higher = longer survival): 110 % of control and 124 % of control

C=C(C)C(=O)O[C@H]1CC2=C[C@@H](C[C@@]3(C)O[C@@H]3[C@H]3OC(=O)C(=C)[C@@H]31)OC2=O
T/C (endpoint: mean tumor weight, dose: 2.0 mg/kg/injection, schedule: Q01DX011 (ip), vehicle: saline, higher = larger tumour): 171 % of control | T/C (endpoint: mean tumor weight, dose: 4.0 mg/kg/injection, schedule: Q01DX011 (ip), vehicle: saline, higher = larger tumour): 118 % of control | T/C (endpoint: mean tumor weight, dose: 8.0 mg/kg/injection, schedule: Q01DX011 (ip), vehicle: saline, higher = larger tumour): 107 % of control

Cn1c(O)c(N=NC(N)=S)c2ccccc21
T/C (endpoint: mean tumor weight, dose: 15.0 mg/kg/injection, schedule: Q01DX011 (ip), vehicle: carboxymethylcellulose (CMC), higher = larger tumour): 70 % of control | T/C (endpoint: mean tumor weight, dose: 120.0 mg/kg/injection, schedule: Q01DX011 (ip), vehicle: carboxymethylcellulose (CMC), higher = larger tumour): 77 % of control and 82 % of control | T/C (endpoint: mean tumor weight, dose: 360.0 mg/kg/injection, schedule: Q01DX011 (ip), vehicle: carboxymethylcellulose (CMC), higher = larger tumour): 57 % of control | T/C (endpoint: mean tumor weight, dose: 500.0 mg/kg/injection, schedule: Q01DX011 (ip), vehicle: carboxymethylcellulose (CMC), higher = larger tumour): 52 % of control

[Cl][Hg][c]1ccc2ccccc2c1
T/C (endpoint: median survival time, dose: 3.0 mg/kg/injection, schedule: Q01DX009 (ip), vehicle: gum acacia, higher = longer survival): 89 % of control | T/C (endpoint: median survival time, dose: 6.0 mg/kg/injection, schedule: Q01DX009 (ip), vehicle: gum acacia, higher = longer survival): 108 % of control

O=c1cnn(C2OC(CO)C(O)C2O)c(=O)[nH]1 (centres undefined)
T/C (endpoint: median survival time, dose: 150.0 mg/kg/injection, schedule: Q01DX009 (ip), vehicle: Klucel (hydroxypropylcellulose) (HPC), higher = longer survival): 150 % of control | T/C (endpoint: median survival time, dose: 600.0 mg/kg/injection, schedule: Q01DX009 (ip), vehicle: Klucel (hydroxypropylcellulose) (HPC), higher = longer survival): 157 % of control

CCCCCC[C@H]([C@H](C)O)n1cnc2c(N)ncnc21
T/C (endpoint: median survival time, dose: 25.0 mg/kg/injection, schedule: Q01DX009 (ip), vehicle: Klucel (hydroxypropylcellulose) (HPC), higher = longer survival): 88 % of control | T/C (endpoint: median survival time, dose: 50.0 mg/kg/injection, schedule: Q01DX009 (ip), vehicle: Klucel (hydroxypropylcellulose) (HPC), higher = longer survival): 103 % of control | T/C (endpoint: median survival time, dose: 100.0 mg/kg/injection, schedule: Q01DX009 (ip), vehicle: Klucel (hydroxypropylcellulose) (HPC), higher = longer survival): 111 % of control

CC(C)=CCC/C(C)=C/CO
T/C (endpoint: mean tumor weight, dose: 3.9 mg/kg/injection, schedule: Q01DX011 (ip), vehicle: saline, higher = larger tumour): 74 % of control | T/C (endpoint: mean tumor weight, dose: 7.8 mg/kg/injection, schedule: Q01DX011 (ip), vehicle: saline, higher = larger tumour): 85 % of control | T/C (endpoint: mean tumor weight, dose: 15.6 mg/kg/injection, schedule: Q01DX011 (ip), vehicle: saline, higher = larger tumour): 71 % of control | T/C (endpoint: mean tumor weight, dose: 31.3 mg/kg/injection, schedule: Q01DX011 (ip), vehicle: saline, higher = larger tumour): 68 % of control and 73 % of control | T/C (endpoint: mean tumor weight, dose: 62.5 mg/kg/injection, schedule: Q01DX011 (ip), vehicle: saline, higher = larger tumour): 105 % of control

C[n+]1ccc(Nc2ccc(NC(=O)c3ccc(Nc4cc[n+](C)c5ccc(N)cc45)cc3N)cc2)cc1
T/C (endpoint: mean tumor weight, dose: 6.25 mg/kg/injection, schedule: Q01DX011 (ip), vehicle: saline, higher = larger tumour): 158 % of control | T/C (endpoint: mean tumor weight, dose: 12.5 mg/kg/injection, schedule: Q01DX011 (ip), vehicle: saline, higher = larger tumour): 40 % of control | T/C (endpoint: median survival time, dose: 3.13 mg/kg/injection, schedule: Q01DX009 (ip), vehicle: Klucel (hydroxypropylcellulose) (HPC), higher = longer survival): 243 % of control | T/C (endpoint: median survival time, dose: 12.5 mg/kg/injection, schedule: Q01DX009 (ip), vehicle: Klucel (hydroxypropylcellulose) (HPC), higher = longer survival): 244 % of control
